# Measured values reported in patent US11795173B1, “Substituted pyridines as PARP1 inhibitors” (Xinthera, Inc., priority 2022, dated 2023).
# What was measured:
# DLD-1 BRCA2(−/−) cells = assay: Cell growth inhibition assay (CellTiter-Glo), DLD-1 BRCA2(−/−); assay type: cell-based; conditions: Homo sapiens, DLD-1, 168 h; cell viability, CellTiter Glo 2.0, 7 days
# Description: The objective of this study is to evaluate the effect of compound disclosed herein on cell proliferation through the cell viability assay in DLD-1 BRCA2(−/−) and parental isogenic pair and MDA-MB-436 (mutated BRCA1) cell lines.
# DLD-1 BRCA2(−/−) and parental isogenic pair were cultured in RPMI 1640 supplemented with 10% fetal bovine serum (FBS), and MDA-MB-436 cells were cultured in DMEM supplemented with 10% FBS. Both are culture at 37° C. with 5% CO2. […] The cells were seeded into the plate in the density of 50 cells/well (DLD-1 parental), 200 cells/well (DLD-1 BRCA2−/−), or 500 cells/well (MDA-MB-436). After a short spun, the cells were cultured in a well moisturized incubator at 37° C. with 5% CO2 for 7 days without disturbance. The cell viability was measured by CellTiter Glo 2.0 assay kit (Promega, G9243), and growth inhibition rate was calculated and plotted against final compound concentration, and the data were fitted in Xfit to generate IC50.
# [1] = system: MDA-MB-436 (mutated BRCA1) cells; assay: Cell growth inhibition assay (CellTiter-Glo), MDA-MB-436; assay type: cell-based; conditions: Homo sapiens, MDA-MB-436, 168 h; cell viability, CellTiter Glo 2.0, 7 days
# From the text: The objective of this study is to evaluate the effect of compound disclosed herein on cell proliferation through the cell viability assay in DLD-1 BRCA2(−/−) and parental isogenic pair and MDA-MB-436 (mutated BRCA1) cell lines. The CellTiter-Glo (CTG) based cell viability assay is designed to determine the number of viable cells in the culture because of compound effect, by quantifying ATP, which indicates the presence of metabolically active cells.
# DLD-1 BRCA2(−/−) and parental isogenic pair were cultured in RPMI 1640 supplemented with 10% fetal bovine serum (FBS), and MDA-MB-436 cells were cultured in DMEM supplemented with 10% FBS. Both are culture at 37° C. with 5% CO2. Invention compounds were distributed to the 384 well plate (Corning, 3764) using Echo acoustic liquid handler to form a 1:3 serially diluted final concentration with top dose of 10 or 30 μM. The cells were seeded into the plate in the density of 50 cells/well (DLD-1 parental), 200 cells/well (DLD-1 BRCA2−/−), or 500 cells/well (MDA-MB-436). After a short spun, the cells were cultured in a well moisturized incubator at 37° C. with 5% CO2 for 7 days without disturbance. The cell viability was measured by CellTiter Glo 2.0 assay kit (Promega, G9243), and growth inhibition rate was calculated and plotted against final compound concentration, and the data were fitted in Xfit to generate IC50.
# [2] = HLM stability, predicted human hepatic clearance; assay type: in vitro ADME; conditions: well-stirred model, 1 μM, 0.5 mg/mL microsomal protein, NADPH
# Description: Working stocks of individual test articles were prepared at a concentration of 100 μM by diluting 10 mM stocks prepared in DMSO 100-fold (v:v) into ACN. Thawed hepatic microsomes were suspended in 100 mM potassium phosphate buffer, pH 7.4 to a microsomal protein concentration of 0.562 mg/mL. Diluted microsomes were combined with a solution of 10 mM NADPH, and the mixture was pre-warmed to 37° C. for 8 min. Reactions were initiated by addition of the test article working stocks to achieve a final test article concentration of 1 μM. Final microsomal protein and NADPH concentrations were 0.5 mg/mL and 1 mM, respectively. Incubations containing NADPH were run in duplicate. Test article losses mediated by non-CYP mechanisms were evaluated in a parallel set of incubations run in the absence of NADPH. Incubations lacking NADPH consisted of 1 replicate per test article. Following incubation in a 37° C. water bath, aliquots of individual reactions were quenched with cold ACN containing internal standards at […], 15-, 30-, 60-, 90-, and 120-min. Precipitated protein was pelleted via refrigerated centrifugation. Supernatants were diluted into an equal volume of pure water and mixed well prior to analysis via LC-MS/MS. In vitro intrinsic clearances (CLint) in μL/min/mg were determined for each incubation from calculated in vitro half-lives determined using a standard log-linear regression approach. In vitro CLint values were scaled up using the following physiological scaling factors: 40 mg microsomal protein/g human liver and 25.7 g human liver/kg body weight.
# [3] = hHEP stability, predicted human hepatic clearance; assay type: in vitro ADME; conditions: well-stirred model, 0.5×10^6 viable cells/mL
# Description: Working stocks of individual test articles were prepared at concentrations of 100 μM by diluting 10 mM stocks prepared in DMSO 100-fold (v:v) into ACN/H2O (50/50, v:v). Human cryopreserved hepatocytes were thawed in a 37° C. water bath in <2 min., suspended in thawing media, and then centrifuged at 100×g for 10 min. Thawing media was aspirated, and pelleted hepatocytes were resuspended into incubation media at 1.5×10^6 cells/mL. Cell viability was determined using an Acridine Orange/Propidium Iodine stain, and hepatocytes were further diluted with incubation media to 0.5×10^6 viable cells/mL. Hepatocyte aliquots of 198 μL were added to wells of a 96-well plate, and test article incubations were initiated by the addition of 2 μL of 100 μM working stocks. Plates were incubated at 37° C. in a 5% CO2 atmosphere at 95% relative humidity on an orbital shaker at 300 rpm. Incubations were performed in duplicate. Following incubation, aliquots of individual reactions were terminated by addition of ACN containing internal standards at 0, 30-, 60-, 90-, 120-, and 240-min. Precipitated protein was pelleted via refrigerated centrifugation. Supernatants were diluted into an equal volume of pure water and mixed well prior to analysis via LC-MS/MS. In vitro intrinsic clearances (CLint) in μL/min/10^6 cells were determined for each incubation from calculated in vitro half-lives determined using a standard log-linear regression approach. In vitro CLint values were scaled up using the following physiological scaling factors: 99×10^6 cells/g human liver and 25.7 g human liver/kg body weight.
# MDR1 = MDR1 (Homo sapiens (Human), UniProt P08183); assay: In vitro human transporter efflux, MDCKII cells expressing MDR1; assay type: in vitro ADME; conditions: for Papp A→B at 2 h, 10 μM: MDCK-MDR1, pH 7.4, apical-to-basolateral, pH7.4, read-out: MDCK-MDR1 Papp AB; for Papp A→B at 2 h, 10 μM / Papp B→A at 2 h, 10 μM: 2-hour incubation; for Papp B→A at 2 h, 10 μM: MDCK-MDR1, pH 7.4, basolateral-to-apical, pH7.4, read-out: MDCK-MDR1 Papp BA; for efflux ratio at 2 h, 10 μM: MDCK-MDR1, pH 7.4, efflux ratio Papp BA/Papp AB
# MDR1, sequence (P08183 whole entry): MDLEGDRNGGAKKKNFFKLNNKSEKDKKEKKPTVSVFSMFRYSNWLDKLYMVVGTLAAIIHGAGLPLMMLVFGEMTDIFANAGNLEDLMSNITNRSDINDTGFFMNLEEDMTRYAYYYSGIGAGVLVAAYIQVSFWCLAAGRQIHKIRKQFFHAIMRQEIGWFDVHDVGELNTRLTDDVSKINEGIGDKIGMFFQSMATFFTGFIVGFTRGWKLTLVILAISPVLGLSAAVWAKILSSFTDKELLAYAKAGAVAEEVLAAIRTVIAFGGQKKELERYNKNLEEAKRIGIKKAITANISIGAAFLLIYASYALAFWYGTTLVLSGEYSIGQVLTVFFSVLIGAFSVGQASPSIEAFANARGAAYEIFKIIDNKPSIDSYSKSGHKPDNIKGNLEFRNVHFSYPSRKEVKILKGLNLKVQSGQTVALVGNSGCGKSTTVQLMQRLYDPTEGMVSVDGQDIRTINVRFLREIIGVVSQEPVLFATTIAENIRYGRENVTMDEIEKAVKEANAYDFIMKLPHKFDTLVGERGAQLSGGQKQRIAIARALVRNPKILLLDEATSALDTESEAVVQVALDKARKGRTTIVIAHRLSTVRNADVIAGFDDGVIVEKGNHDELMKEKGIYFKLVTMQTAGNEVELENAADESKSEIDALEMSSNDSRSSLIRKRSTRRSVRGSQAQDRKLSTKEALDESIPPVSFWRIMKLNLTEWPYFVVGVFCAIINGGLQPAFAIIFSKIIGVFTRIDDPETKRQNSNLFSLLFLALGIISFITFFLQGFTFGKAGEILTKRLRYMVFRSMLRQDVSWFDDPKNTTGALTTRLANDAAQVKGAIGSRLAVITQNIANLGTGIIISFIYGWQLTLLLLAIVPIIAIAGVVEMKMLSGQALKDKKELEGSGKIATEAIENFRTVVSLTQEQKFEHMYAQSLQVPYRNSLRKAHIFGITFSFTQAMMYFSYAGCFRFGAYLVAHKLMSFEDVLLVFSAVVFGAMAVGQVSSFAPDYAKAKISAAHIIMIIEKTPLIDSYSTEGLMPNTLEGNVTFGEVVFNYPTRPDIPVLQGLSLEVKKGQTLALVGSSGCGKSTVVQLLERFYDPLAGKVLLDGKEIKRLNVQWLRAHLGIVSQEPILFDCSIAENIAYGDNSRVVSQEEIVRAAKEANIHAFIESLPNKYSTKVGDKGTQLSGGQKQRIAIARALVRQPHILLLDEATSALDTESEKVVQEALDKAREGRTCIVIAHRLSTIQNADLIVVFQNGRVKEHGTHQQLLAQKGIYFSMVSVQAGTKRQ
# Description: (§1) Madin-Darby canine kidney (MDCKII) cells expressing either MDR1 or BCRP were seeded onto Corning HTS Transwell® 96-well polycarbonate permeable (0.4 μm pore) supports at a density of 545,000 cells/cm^2. Cells were incubated for 4-8 days prior to assay, and monolayer integrity was assessed by measuring transepithelial electrical resistance (TEER). […] The final organic solvent concentration was 0.5% (v/v). Bidirectional (apical-to-basolateral and basolateral-to-apical) flux of the test and reference compounds was determined over a 2-hour incubation at 37° C. and 5% CO2 with a relative humidity of 95%. At the end of the incubation, samples from the apical and basolateral side were taken and then precipitated with acetonitrile containing internal standard. After centrifugation at 3200×g, supernatants were diluted 1:1 (v/v) with water and subjected to analysis via HPLC-MS/MS.
# (§2) Apparent permeability (Papp, ×10^−6 cm/s) was calculated for all transport assays using the following equation: […]
# (§3) Efflux ratio was determined by calculating the ratio of the Papp in the basolateral-to-apical direction to the Papp in the apical-to-basolateral direction using the following equation: […]
# PARP1 = PARP1 (Homo sapiens (Human), UniProt P09874); assay: Biochemical fluorescence polarization (FP) assay, PARPi-FL displacement, PARP1; assay type: binding; conditions: 20 nM protein, 3 nM PARPi-FL, 4 h at room temperature
# PARP1, sequence (P09874 whole entry): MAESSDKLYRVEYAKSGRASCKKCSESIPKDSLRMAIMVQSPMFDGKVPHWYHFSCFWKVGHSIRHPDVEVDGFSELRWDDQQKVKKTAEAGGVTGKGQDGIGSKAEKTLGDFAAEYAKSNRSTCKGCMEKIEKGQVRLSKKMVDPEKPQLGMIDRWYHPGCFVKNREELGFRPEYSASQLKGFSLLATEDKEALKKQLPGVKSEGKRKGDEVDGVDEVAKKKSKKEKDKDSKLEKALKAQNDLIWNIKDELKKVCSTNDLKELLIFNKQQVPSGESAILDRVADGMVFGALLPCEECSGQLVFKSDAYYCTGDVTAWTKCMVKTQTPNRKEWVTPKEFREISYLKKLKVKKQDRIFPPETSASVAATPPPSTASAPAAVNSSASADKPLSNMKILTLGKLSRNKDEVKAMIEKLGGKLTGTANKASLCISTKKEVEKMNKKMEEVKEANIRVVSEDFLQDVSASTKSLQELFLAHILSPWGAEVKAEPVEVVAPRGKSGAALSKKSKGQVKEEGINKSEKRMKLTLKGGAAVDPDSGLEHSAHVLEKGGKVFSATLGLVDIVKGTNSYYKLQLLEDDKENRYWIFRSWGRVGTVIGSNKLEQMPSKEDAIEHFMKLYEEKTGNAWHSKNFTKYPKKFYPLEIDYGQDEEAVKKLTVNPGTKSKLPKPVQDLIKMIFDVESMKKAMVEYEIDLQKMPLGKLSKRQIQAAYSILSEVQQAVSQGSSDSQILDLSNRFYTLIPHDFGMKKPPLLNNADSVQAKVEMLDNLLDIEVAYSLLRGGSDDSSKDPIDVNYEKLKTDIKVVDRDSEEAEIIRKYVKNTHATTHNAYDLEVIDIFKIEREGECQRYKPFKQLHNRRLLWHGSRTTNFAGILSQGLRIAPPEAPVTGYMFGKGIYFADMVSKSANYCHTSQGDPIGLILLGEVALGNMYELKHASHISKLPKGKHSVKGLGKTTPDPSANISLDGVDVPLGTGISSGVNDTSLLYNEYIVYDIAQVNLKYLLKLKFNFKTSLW
# Description: (§4) To characterize our compounds, we utilized an assay measuring the displacement of a commercially available fluorescently labeled PARP 1/2 inhibitor (PARPi-FL, Tocris Biosciences, #6461) as exemplified in assays performed in WO2014/064149 and WO2021/013735A1. The assay was performed utilizing the following method: Compounds were dissolved in DMSO an Echo550 liquid handler was utilized to make serial dilations in the desired concentration range in Optiplate-384F plates. 100% DMSO was used for the high (with protein) and low (without protein) control samples. 20 nL of compound or DMSO alone was added to individual assay plate wells. […] The PARPi-FL was then added at a final concentration of 3 nM. The assay plate is centrifuged at 1000 rpm for 1 min and incubated for 4 h at room temperature. […] XLFit (equation 201) is used to calculate a reported IC50 for each compound.
# PARP2 = PARP2 (Homo sapiens (Human), UniProt Q9UGN5); assay: Biochemical fluorescence polarization (FP) assay, PARPi-FL displacement, PARP2; assay type: binding; conditions: 20 nM protein, 3 nM PARPi-FL, 4 h at room temperature
# PARP2, sequence (Q9UGN5 whole entry): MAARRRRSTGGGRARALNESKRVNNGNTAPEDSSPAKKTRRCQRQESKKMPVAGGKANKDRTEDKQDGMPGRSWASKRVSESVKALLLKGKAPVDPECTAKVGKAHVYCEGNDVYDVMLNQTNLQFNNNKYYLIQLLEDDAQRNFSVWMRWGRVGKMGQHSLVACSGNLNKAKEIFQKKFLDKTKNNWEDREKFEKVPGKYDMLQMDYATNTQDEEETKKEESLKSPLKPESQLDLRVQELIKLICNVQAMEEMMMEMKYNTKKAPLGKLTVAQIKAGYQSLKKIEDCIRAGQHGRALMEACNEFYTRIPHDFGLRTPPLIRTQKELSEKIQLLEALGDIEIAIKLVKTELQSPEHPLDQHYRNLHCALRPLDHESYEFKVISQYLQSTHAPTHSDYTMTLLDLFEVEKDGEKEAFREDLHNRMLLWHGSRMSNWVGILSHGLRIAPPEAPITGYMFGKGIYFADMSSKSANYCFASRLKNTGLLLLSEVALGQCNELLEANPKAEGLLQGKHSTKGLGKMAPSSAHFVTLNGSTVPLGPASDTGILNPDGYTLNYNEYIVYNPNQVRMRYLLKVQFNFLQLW
# Description: as §4
# BCRP = BCRP (Homo sapiens (Human), UniProt Q9UNQ0); assay: In vitro human transporter efflux, MDCKII cells expressing BCRP; assay type: in vitro ADME; conditions: 10 μM, 2-hour incubation; for Papp A→B at 2 h, 10 μM: pH 7.4, apical-to-basolateral, pH7.4, read-out: BCRP Papp AB; for Papp B→A at 2 h, 10 μM: pH 7.4, basolateral-to-apical, pH7.4, read-out: BCRP Papp BA
# BCRP, sequence (Q9UNQ0 whole entry): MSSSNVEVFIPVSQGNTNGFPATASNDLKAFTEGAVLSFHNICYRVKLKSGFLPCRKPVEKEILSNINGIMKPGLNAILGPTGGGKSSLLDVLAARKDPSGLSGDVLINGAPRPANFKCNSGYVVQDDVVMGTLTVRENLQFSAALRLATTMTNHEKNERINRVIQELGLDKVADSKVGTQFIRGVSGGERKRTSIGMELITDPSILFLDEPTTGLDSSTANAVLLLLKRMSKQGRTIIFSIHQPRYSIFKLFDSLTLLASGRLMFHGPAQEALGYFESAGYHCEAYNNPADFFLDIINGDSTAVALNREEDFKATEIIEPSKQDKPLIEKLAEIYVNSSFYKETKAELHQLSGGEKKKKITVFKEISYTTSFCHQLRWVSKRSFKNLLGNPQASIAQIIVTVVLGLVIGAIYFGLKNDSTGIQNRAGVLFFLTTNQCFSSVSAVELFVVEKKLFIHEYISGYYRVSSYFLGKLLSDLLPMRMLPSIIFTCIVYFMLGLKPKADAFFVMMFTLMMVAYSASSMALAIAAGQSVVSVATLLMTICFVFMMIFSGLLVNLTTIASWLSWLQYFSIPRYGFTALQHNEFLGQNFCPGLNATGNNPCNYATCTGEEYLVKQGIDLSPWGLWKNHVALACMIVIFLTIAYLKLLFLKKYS
# Description: as §1, §2, §3
smiles,measurement,setting,value
"CNC(=O)c1ccc(N2CCN(Cc3ccc4c5c(c(=O)[nH]c4c3)CCO5)CC2)c(C)n1 [Comp. Ex. 1, N,6-dimethyl-5-[4-({4-oxo-2H,3H,5H-furo[3,2-c]quinolin-7-yl}methyl)piperazin-1-yl]pyridine-2-carboxamide, reference compound]",EC50,DLD-1 BRCA2(−/−) cells,2 nM
same,EC50,[1],0.6 nM
same,HLM Clh,[2],<4 mL/min/kg
same,HHEP Clh,[3],<3.3 mL/min/kg
same,"Papp A→B at 2 h, 10 μM",MDR1,7.5 ×10⁻⁶ cm/s
same,"Papp B→A at 2 h, 10 μM",MDR1,39.8 ×10⁻⁶ cm/s
"CNC(=O)c1ccc(N2CCN(Cc3cc(F)c4c5c(c(=O)[nH]c4c3)COC5)CC2)c(F)n1 [Comp. Ex. 3, 6-fluoro-5-(4-((9-fluoro-4-oxo-1,3,4,5-tetrahydrofuro[3,4-c]quinolin-7-yl)methyl)piperazin-1-yl)-N-methylpicolinamide, reference compound]",EC50,DLD-1 BRCA2(−/−) cells,1.6 nM
same,EC50,[1],0.4 nM
same,HLM Clh,[2],7.2 mL/min/kg
same,HHEP Clh,[3],7.1 mL/min/kg
same,"Papp A→B at 2 h, 10 μM",MDR1,6.6 ×10⁻⁶ cm/s
same,"Papp B→A at 2 h, 10 μM",MDR1,32.3 ×10⁻⁶ cm/s
same,"efflux ratio at 2 h, 10 μM",MDR1,5
"CNC(=O)c1ccc(N2CCN(Cc3ccc4c5c(c(=O)[nH]c4c3F)CCC5)CC2)c(F)n1 [Comp. Ex. 4, reference compound]",EC50,DLD-1 BRCA2(−/−) cells,1 nM
same,EC50,[1],1.1 nM
same,"Papp A→B at 2 h, 10 μM",MDR1,16.3 ×10⁻⁶ cm/s
same,"Papp B→A at 2 h, 10 μM",MDR1,20.6 ×10⁻⁶ cm/s
[2H]C([2H])([2H])NC(=O)c1ccc(N2CCN(Cc3ccc4c([nH]c(=O)c5ccoc54)c3F)CC2)c(F)n1 [Example 30],EC50,DLD-1 BRCA2(−/−) cells,6.5 nM
same,IC50,PARP1,56 nM
same,EC50,[1],4.6 nM
same,IC50,PARP2,> 100000 nM
CNC(=O)c1ccc(N2CCN(Cc3ccc4c([nH]c(=O)c5cc(C)nn54)c3F)CC2)c(F)n1 [Example 5],EC50,DLD-1 BRCA2(−/−) cells,4.2 nM
same,EC50,[1],2.9 nM
same,"Papp A→B at 2 h, 10 μM",MDR1,10.3 ×10⁻⁶ cm/s
same,"Papp B→A at 2 h, 10 μM",MDR1,21.2 ×10⁻⁶ cm/s
same,"efflux ratio at 2 h, 10 μM",MDR1,2.06
Cc1cc2c(=O)[nH]c3c(F)c(CN4CCN(c5ccc(C(=O)NC6CC6)nc5F)CC4)ccc3n2n1 [Example 4],EC50,DLD-1 BRCA2(−/−) cells,2.1 nM
same,EC50,[1],1.2 nM
same,"Papp A→B at 2 h, 10 μM",MDR1,4.4 ×10⁻⁶ cm/s
same,"Papp B→A at 2 h, 10 μM",MDR1,8.6 ×10⁻⁶ cm/s
same,"efflux ratio at 2 h, 10 μM",MDR1,1.96
"[2H]C([2H])([2H])NC(=O)c1ccc(N2CCN(Cc3ccc4c5c(c(=O)[nH]c4c3F)CCO5)CC2)c(F)n1 (single isomer, unassigned) [Example 22]",EC50,DLD-1 BRCA2(−/−) cells,6.6 nM
same,"Papp A→B at 2 h, 10 μM",BCRP,28.2 ×10⁻⁶ cm/s
same,"Papp B→A at 2 h, 10 μM",BCRP,23.6 ×10⁻⁶ cm/s
same,EC50,[1],4.9 nM
same,"Papp A→B at 2 h, 10 μM",MDR1,15.1 ×10⁻⁶ cm/s
same,"Papp B→A at 2 h, 10 μM",MDR1,23.3 ×10⁻⁶ cm/s
"[2H]C([2H])(c1ccc2c3c(c(=O)[nH]c2c1F)CCO3)N1CCN(c2ccc(C(=O)NC)nc2F)CC1 (single isomer, unassigned) [Example 24]",EC50,DLD-1 BRCA2(−/−) cells,3.8 nM
same,"Papp A→B at 2 h, 10 μM",BCRP,22.9 ×10⁻⁶ cm/s
same,"Papp B→A at 2 h, 10 μM",BCRP,24.4 ×10⁻⁶ cm/s
same,EC50,[1],3 nM
same,"Papp A→B at 2 h, 10 μM",MDR1,16.3 ×10⁻⁶ cm/s
same,"Papp B→A at 2 h, 10 μM",MDR1,32.9 ×10⁻⁶ cm/s
"[2H]C([2H])([2H])NC(=O)c1ccc(N2CCN(Cc3ccc4c([nH]c(=O)c5c(F)cnn54)c3F)CC2)c(F)n1 (single isomer, unassigned) [Example 33]",EC50,DLD-1 BRCA2(−/−) cells,0.96 nM
same,IC50,PARP1,11 nM
same,EC50,[1],0.79 nM
same,IC50,PARP2,> 100000 nM
"[2H]C([2H])(c1ccc2c([nH]c(=O)c3c(F)cnn32)c1F)N1CCN(c2ccc(C(=O)NC)nc2F)CC1 (single isomer, unassigned) [Example 34]",EC50,DLD-1 BRCA2(−/−) cells,0.99 nM
same,IC50,PARP1,40 nM
same,EC50,[1],1.1 nM
same,IC50,PARP2,> 100000 nM
